These results are taken from US8541576B2, “Substituted pyrazolo-quinazoline derivatives as kinase inhibitors” (Nerviano Medical Sciences SRL, priority 2010, dated 2013).

The target of test [1] is T1, Full-length human PIM-1 (Homo sapiens, UniProt P11309).
T1 construct: Full-length human PIM-1 was expressed and purified; made in house
As to the kind of experiment: Biochemical assay for inhibitors of PIM-1 kinase activity (trans-phosphorylation, Dowex resin, 33P-ATP). The settings on record: ATP 200 μM, enzyme 1 nM, Aktide 25 μM. The method, then:
Biochemical assay for inhibitors of PIM-1 kinase activity
The inhibitory activity of putative kinase inhibitors and the potency of selected compounds were determined using a trans-phosphorylation assay.
Specific peptide or protein substrates are trans-phosphorylated by their specific ser-thr or tyr kinase in the presence of ATP traced with ^33P-γ-ATP, and in the presence of their own optimal buffer and cofactors.
At the end of the phosphorylation reaction, more than 98% unlabeled ATP and radioactive ATP is captured by an excess of the ion exchange Dowex® resin; the resin then settles down to the bottom of the reaction plate by gravity.
Supernatant is subsequently withdrawn and transferred into a counting plate, then evaluated by β-counting.
The buffer for PIM-1 assay was composed of HEPES 50 mM, at pH 7.5, with 10 mM MgCl2, 1 mM DTT, 3 μM NaVO3, and 0.2 mg/ml BSA
Full-length human PIM-1 was expressed and purified as described in Bullock A N, et al., J. Biol. Chem. 2005, 280, 41675-82.
1.7 μM PIM1 was incubated 1 hour RT at 28° C. in the presence of 125 μM ATP
ATP concentration: 200 μM
Enzyme concentration: 1 nM
Substrate concentration Aktide (Chemical Abstract Service Registry Number 324029-01-8): 25 μM
The test mix consisted of:
1) 3× Enzyme mix (done in Kinase Buffer 3×), 5 μL/well
2) 3× substrate and ATP mix (done in ddH2O), together with ^33P-γ-ATP, 5 μL/well
3) 3× test compounds (diluted into ddH2O—3% DMSO)-5 μL/well
For IC50 determination, test compounds are received as a 1 mM solution in 100% DMSO and distributed into 96-well plates: compounds are then plated into the first column of a new 96-well plate (A1 to G1), 100 μl/well.
An automated station (Biomek FX®, Beckman) is used for serial dilutions, producing 1:3 dilutions in 100% DMSO, from line A1 to A10, for all the compounds in the column. Moreover, 4-5 copies of daughter plates are prepared by reformatting 5 μL of this first set of 100% DMSO dilution plates into 384-deep well plates: one copy of these serial dilution plates with the test compounds is thawed on the day of study, reconstituted at the working concentration (3-fold the final concentration) with 162 μL/well of water and used for IC50 determination assays. In a standard experiment, the highest concentration (3×) of compounds is typically 30 μM, while the lowest one is typically 1.5 nM.
Each 384-well plate generates at least one curve of the standard inhibitor staurosporine and reference wells (total enzyme activity vs. no enzymatic activity) for evaluation of Z′ and signal to background (S/B) ratio.
384-well plates, V bottom (test plates) are prepared with 5 μl of compound diluted as previously described (3×) and then placed onto a PlateTrak® 12 robotized station (Perkin Elmer; the robot has one 384-tip pipetting head for assay start, plus one 96-tip head for dispensing resin) together with one reservoir for Enzyme mix (3×) and one for ATP mix (3×).
Data are analyzed by an internally customized version of the “Assay Explorer®” SW package, which provides sigmoidal fitting of the ten-dilution curves for IC50 determination in secondary assay/hit confirmation routines.

Test [2] concerns the target T2, Full-length human PIM-2 (Homo sapiens, UniProt Q9P1W9).
T2 construct: Full-length human PIM-2 was expressed and purified; made in house
As to the kind of experiment: PIM-2 kinase inhibition assay: Dowex technique. Type of test: biochemical. The note with it: ATP 4 μM, enzyme 1.5 nM, Aktide 5 μM. The method, then:
Method for PIM-2 Kinase Inhibition Assay: Dowex Technique
The buffer for PIM-2 assay was composed of HEPES 50 mM, at pH 7.5, with 1 mM MgCl2, 1 mM DTT, 3 μM Na3VO4, and 0.2 mg/ml BSA
Full-length human PIM-2 was expressed and purified as described in Fedorov O, et al. (2007) PNAS 104, 51, 20523-28.
Assay Conditions (Final Concentrations):
Enzyme concentration=1.5 nM
Aktide substrate (Chemical Abstract Service Registry Number 324029-01-8)=5 μM
See above: same procedure as described for PIM-1.

Test [3] concerns MV-4-11 (biphenotypic B myelomonocytic leukemia) cells. As to the kind of experiment: In vitro cell proliferation assay (CellTiter-Glo). The settings on record: Homo sapiens, MV4-11, antiproliferative activity, 72 hours. Type of test: cell-based. As to the method: In Vitro Cell Proliferation Assay:
MV-4-11 (biphenotypic B myelomonocytic leukemia) cells (1250 cells/well) were seeded in white 384 well-plates in complete medium (RPMI 1640 or EMEM plus 10% Fetal bovine serum) and treated with compounds dissolved in 0.1% DMSO, 24 h after seeding. The cells were incubated at 37° C. and 5% CO2 and after 72 hours the plates were processed using CellTiter-Glo® assay (Promega) following the manufacturer's instruction. CellTiter-Glo® is a homogenous method based on the quantification of the ATP present, an indicator of metabolically active cells. ATP is quantified using a system based on luciferase and D-luciferin resulting into light generation. The luminescent signal is proportional to the number of cells present in culture.
Briefly 25 μl/well reagent solution was added to each wells and after 5 minutes shacking microplates were red by Envision® (PerkinElmer) luminometer. The luminescent signal was proportional to the number of cells present in culture.
Inhibitory activity was evaluated comparing treated versus control data using Assay Explorer (MDL) program. IC50 was calculated using sigmoidal interpolation curve.

T2 sequence (Q9P1W9 whole entry): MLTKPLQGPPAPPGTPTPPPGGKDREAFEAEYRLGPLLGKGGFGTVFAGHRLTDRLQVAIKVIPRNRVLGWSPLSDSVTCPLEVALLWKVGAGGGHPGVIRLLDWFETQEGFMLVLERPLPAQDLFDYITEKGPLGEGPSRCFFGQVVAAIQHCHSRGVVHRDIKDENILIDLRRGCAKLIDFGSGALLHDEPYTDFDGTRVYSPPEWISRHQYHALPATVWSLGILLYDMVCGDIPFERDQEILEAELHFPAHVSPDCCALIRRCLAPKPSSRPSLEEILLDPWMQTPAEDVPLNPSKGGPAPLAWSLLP
T1 sequence (P11309 whole entry): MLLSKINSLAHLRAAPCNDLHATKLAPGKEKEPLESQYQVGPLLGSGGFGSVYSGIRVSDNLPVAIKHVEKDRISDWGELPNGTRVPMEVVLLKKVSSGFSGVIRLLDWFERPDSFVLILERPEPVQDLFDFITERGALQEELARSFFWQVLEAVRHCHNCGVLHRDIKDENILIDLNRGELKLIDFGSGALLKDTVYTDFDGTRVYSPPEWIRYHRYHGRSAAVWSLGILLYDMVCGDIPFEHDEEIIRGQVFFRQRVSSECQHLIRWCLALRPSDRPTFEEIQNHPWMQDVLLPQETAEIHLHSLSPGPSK

`CSc1ncc2ccc3c(C(N)=O)nn(CCO)c3c2n1` [Compound 1, 1-(2-hydroxyethyl)-8-(methylsulfanyl)-1H-pyrazolo[4,3-h]quinazoline-3-carboxamide]: the IC50 in test [1] was found to be 50 nM; in test [2] it was 221 nM; in test [3], 992 nM.

With `CNC(=O)c1nn(C(C)(C)C)c2c1ccc1cnc(SC)nc12` [Compound 7, 1-tert-butyl-N-methyl-8-(methylsulfanyl)-1H-pyrazolo[4,3-h]quinazoline-3-carboxamide], the IC50 in test [1] was found to be 41 nM; in test [2], 156 nM; in test [3], 1760 nM.

For the compound `CSc1ncc2ccc3c(C(N)=O)nn(CCN)c3c2n1` [Compound 15, 1-(2-aminoethyl)-8-(methylsulfanyl)-1H-pyrazolo[4,3-h]quinazoline-3-carboxamide], the IC50 in test [1] was 143 nM; in test [2], 282 nM; in test [3], 1430 nM.

For `CSc1ncc2ccc3c(C(N)=O)nn(CC4CCNCC4)c3c2n1` [Compound 17, 8-(methylsulfanyl)-1-(piperidin-4-ylmethyl)-1H-pyrazolo[4,3-h]quinazoline-3-carboxamide], the concentration for half-maximal inhibition (IC50) in test [1] is 9 nM; in test [2], 160 nM; in test [3], 1540 nM.

For the compound `CN1CCN(c2ccc(Oc3ncc4c(n3)-c3c(c(C(N)=O)nn3C)CC4)cc2)CC1` [Compound 25, 1-methyl-8-[4-(4-methylpiperazin-1-yl)phenoxy]-4,5-dihydro-1H-pyrazolo[4,3-h]quinazoline-3-carboxamide], the concentration for half-maximal inhibition (IC50) in test [1] was 776 nM; in test [2] it was more than 10000 nM; in test [3], more than 10000 nM.

`CN1CCN(c2ccc(Oc3ncc4ccc5c(C(N)=O)nn(C)c5c4n3)cc2)CC1` [Compound 26, 1-methyl-8-[4-(4-methylpiperazin-1-yl)phenoxy]-1H-pyrazolo[4,3-h]quinazoline-3-carboxamide]: the IC50 in test [1] amounted to 33 nM; in test [2] it was 861 nM; in test [3] it was 520 nM.

For the compound `Cn1nc(C(N)=O)c2ccc3cnc(Oc4ccc(N5CCNCC5)cc4)nc3c21` [Compound 27, 1-methyl-8-[4-(piperazin-1-yl)phenoxy]-1H-pyrazolo[4,3-h]quinazoline-3-carboxamide], the IC50 worked out at 4 nM in test [1], 498 nM in test [2] and 308 nM in test [3].

Turning to `CN1CCN(c2ccc(Oc3ncc4ccc5c(C(N)=O)nn(C)c5c4n3)c(Br)c2)CC1` [Compound 29, 8-[2-bromo-4-(4-methylpiperazin-1-yl)phenoxy]-1-methyl-1H-pyrazolo[4,3-h]quinazoline-3-carboxamide], the IC50 was 21 nM in test [1], 2400 nM in test [2] and 758 nM in test [3].

Turning to `CN1CCN(c2ccc(Oc3ncc4ccc5c(C(N)=O)nn(C)c5c4n3)c(F)c2)CC1` [Compound 36, 8-[2-fluoro-4-(4-methylpiperazin-1-yl)phenoxy]-1-methyl-1H-pyrazolo[4,3-h]quinazoline-3-carboxamide], the IC50 worked out at 116 nM in test [1], 694 nM in test [2] and 940 nM in test [3].

As for `CC(=O)c1cc(N2CCN(C)CC2)ccc1Oc1ncc2ccc3c(C(N)=O)nn(C)c3c2n1` [Compound 37, 8-[2-acetyl-4-(4-methylpiperazin-1-yl)phenoxy]-1-methyl-1H-pyrazolo[4,3-h]quinazoline-3-carboxamide], the results for the 50% inhibitory concentration (IC50) in test [1] and in test [2] were 4120 nM and more than 1000 nM, respectively.

For the compound `CC(=O)c1cc(N2CCNCC2)ccc1Oc1ncc2ccc3c(C(N)=O)nn(C)c3c2n1` [Compound 38, 8-[2-acetyl-4-(piperazin-1-yl)phenoxy]-1-methyl-1H-pyrazolo[4,3-h]quinazoline-3-carboxamide], the values for the IC50 in test [1], in test [2] and in test [3] were 20 nM, 527 nM and 308 nM, respectively.

In the case of `CN1CCN(c2ccc(Oc3ncc4ccc5c(C(N)=O)nn(CCO)c5c4n3)cc2)CC1` [Compound 46, 1-(2-hydroxyethyl)-8-[4-(4-methylpiperazin-1-yl)phenoxy]-1H-pyrazolo[4,3-h]quinazoline-3-carboxamide], the IC50 in test [1] was 81 nM; in test [2], 1300 nM; in test [3], 673 nM.

With `CN(C)c1ncc2ccc3c(C(N)=O)nn(C(C)(C)C)c3c2n1` [Compound 52, 1-tert-butyl-8-(dimethylamino)-1H-pyrazolo[4,3-h]quinazoline-3-carboxamide], the IC50 in test [1] came to 13 nM; in test [2], 21 nM; in test [3] it was 866 nM.

`CSc1ncc2c(n1)-c1c(c(C(N)=O)nn1C1CCNCC1)CC2` [Compound 72, 8-(methylsulfanyl)-1-(piperidin-4-yl)-4,5-dihydro-1H-pyrazolo[4,3-h]quinazoline-3-carboxamide]: the IC50 in test [1] was 270 nM; in test [2] it was 313 nM; in test [3] it was 1780 nM.

In the case of `CSc1ncc2ccc3c(C(N)=O)nn(C)c3c2n1` [Compound 87, 1-methyl-8-(methylsulfanyl)-1H-pyrazolo[4,3-h]quinazoline-3-carboxamide], the half-maximal inhibitory concentration (IC50) was 123 nM in test [1], 888 nM in test [2] and 1940 nM in test [3].

With `CSc1ncc2ccc3c(C(N)=O)nn(C4CCNCC4)c3c2n1` [Compound 91, 8-(methylsulfanyl)-1-(piperidin-4-yl)-1H-pyrazolo[4,3-h]quinazoline-3-carboxamide], the IC50 came out at 19 nM in test [1], 46 nM in test [2] and 1440 nM in test [3].

Take `CSc1ncc2ccc3c(C(N)=O)nn(C4CCCNC4)c3c2n1` (centres unmarked) [Compound 92, 8-(methylsulfanyl)-1-(piperidin-3-yl)-1H-pyrazolo[4,3-h]quinazoline-3-carboxamide]: the half-inhibitory concentration (IC50) was 22 nM in test [1], 21 nM in test [2] and 147 nM in test [3].

For `NC(=O)c1nn(C2CCC(N)CC2)c2c1ccc1cnc(-c3ccccc3)nc12` (centres unmarked) [Compound 111, 1-(4-aminocyclohexyl)-8-phenyl-1H-pyrazolo[4,3-h]quinazoline-3-carboxamide], the half-inhibitory concentration (IC50) amounted to 400 nM in test [1] and 210 nM in test [2].

Consider `Cn1nc(C(N)=O)c2c1-c1nc(N3CCCCC3)ncc1CC2` [Ref. Compound 1, 1-methyl-8-(piperidin-1-yl)-4,5-dihydro-1H-pyrazolo[4,3-h]quinazoline-3-carboxamide, reference compound], for which the IC50 in test [1] and in test [2] was more than 10000 nM each time.

Take `CSc1ncc2c(n1)-c1c(c(C(N)=O)nn1C)CC2` [Ref. Compound 2, 1-methyl-8-(methylsulfanyl)-4,5-dihydro-1H-pyrazolo[4,3-h]quinazoline-3-carboxamide, reference compound]: the IC50 in test [1] is 1010 nM; in test [2], more than 10000 nM.
